From patent publication US9708336B2, “Metallo-beta-lactamase inhibitors” (priority 2014, dated 2017)
Where two headings read alike, the source gives them in different places.

What was measured:
VIM-1 = VIM-1 (Pseudomonas aeruginosa (strain ATCC 15692 / DSM 22644 / CIP 104116 / JCM 14847 / LMG 12228 / 1C / PRS 101 / PAO1), UniProt A0A0F7KYQ8); assay: Enzyme activity: determination of IC50, fluorescence assay with CCF2-FA substrate (VIM-1); format: biochemical
IMP-1 = IMP-1 (Serratia marcescens, UniProt P52699); assay: biochemical; format: biochemical; settings: read-out: IMP-1 IC50
IMP-1, sequence (P52699 whole entry, looked up): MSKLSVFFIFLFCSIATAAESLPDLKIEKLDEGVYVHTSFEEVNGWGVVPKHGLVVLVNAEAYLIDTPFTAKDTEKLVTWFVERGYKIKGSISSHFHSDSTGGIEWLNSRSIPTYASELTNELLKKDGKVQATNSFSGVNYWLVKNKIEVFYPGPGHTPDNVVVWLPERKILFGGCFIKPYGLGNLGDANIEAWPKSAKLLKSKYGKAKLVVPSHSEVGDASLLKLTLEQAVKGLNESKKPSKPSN

NDM-1 = NDM-1 (Klebsiella pneumoniae, UniProt C7C422); assay: biochemical; format: biochemical; settings: read-out: NDM-1 IC50
NDM-1, sequence (C7C422 whole entry, looked up, species assumed): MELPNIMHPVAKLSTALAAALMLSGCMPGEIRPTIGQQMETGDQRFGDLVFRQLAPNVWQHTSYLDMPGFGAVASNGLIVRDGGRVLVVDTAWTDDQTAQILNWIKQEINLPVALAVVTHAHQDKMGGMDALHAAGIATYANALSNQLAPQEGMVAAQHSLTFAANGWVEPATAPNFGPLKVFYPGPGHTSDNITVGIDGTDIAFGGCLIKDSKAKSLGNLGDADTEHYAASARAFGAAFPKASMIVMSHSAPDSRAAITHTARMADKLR

[1] = system: Serratia marcescens expressing IMP-1 (CL5741); assay: Antibiotic potentiation activity: synergistic concentration (MITC95) with imipenem, OD600 growth; format: cell-based
Summary of the method: (§1)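 Steps: colonies grown overnight at 35 °C; resuspended in saline to OD600 0.11–0.15 by strain; diluted 1:100 into 1.1× CAMHB; imipenem then compound added (antibiotic 4 μg/ml in assay); incubated 35 °C for 22–24 h; absorbance measured.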

[2] = system: Escherichia coli expressing NDM-1 (CLB30016); assay: as above; format: cell-based
Summary of the method: as §1

[3] = system: Klebsiella pneumoniae expressing VIM-1 (IHMA599644); assay: as above; format: cell-based
Summary of the method: as §1

[4] = VIM-1 IC50, VIM-1 enzyme, CCF2-FA substrate
[5] = IMP-1 enzyme, CCF2-FA substrate
[6] = NDM-1 enzyme, CCF2-FA substrate
[7] = Serratia marcescens CL5741 (IMP-1), 95% growth inhibition
[8] = (CLB30016, NDM-1), 95% growth inhibition
[9] = Klebsiella pneumoniae IHMA599644 (VIM-1), 95% growth inhibition
[10] = fluorescence assay with CCF2-FA substrate
[11] = VIM-1 enzyme, CCF2-FA substrate, read-out: VIM-1 IC50
[12] = VIM-1 IC50, VIM-1 enzyme, CCF2-FA fluorescence assay
[13] = IMP-1 enzyme, CCF2-FA fluorescence assay
[14] = NDM-1 enzyme, CCF2-FA fluorescence assay
[15] = Serratia marcescens expressing IMP-1 (CL5741), 95% growth inhibition
[16] = Escherichia coli expressing NDM-1 (CLB30016), 95% growth inhibition
[17] = Klebsiella pneumoniae expressing VIM-1 (IHMA599644), 95% growth inhibition
[18] = VIM-1 enzyme, CCF2-FA fluorescence assay, read-out: VIM-1 IC50

Row | SMILES | IC50 (IMP-1; [5]) [nM] | IC50 (NDM-1; [6]) [nM] | Serratia marcescens MITC95 [1, 7] [µM] | Escherichia coli MITC95 [2, 8] [µM] | Klebsiella pneumoniae MITC95 [3, 9] [µM] | IC50 (IMP-1; [13]) [nM] | IC50 (NDM-1; [14]) [nM] | Serratia marcescens MITC95 [1, 15] [µM] | Escherichia coli MITC95 [2, 16] [µM] | Klebsiella pneumoniae MITC95 [3, 17] [µM] | IC50 (VIM-1; [18]) [nM] | further results
1 | NC1CCCc2ccc(-c3ccc(C(F)(F)F)c(S(N)(=O)=O)c3-c3nnn[nH]3)cc21 (stereo not drawn) [Example 731, 3-(8-amino-5,6,7,8-tetrahydronaphthalen-2-yl)-2-(1H-tetrazol-5-yl)-6-(trifluoromethyl)benzenesulfon-amide] | 117 | 61.3 | 50 | 25 | 50 | – | – | – | – | – | – | IC50 (VIM-1; [4]): 22.1 nM
2 | NC1CCC(N2CCC(c3ccc(-c4ccc(C(F)(F)F)c(S(N)(=O)=O)c4-c4nnn[nH]4)cc3)CC2)C1 (stereo not drawn) [Example 786, 4′-[1-(3-aminocyclopentyl)piperidin-4-yl]-2-(1H-tetrazol-5-y)-4-(trifluoromethyl)biphenyl-3-sulfonamide] | – | – | – | – | – | – | – | – | – | – | – | IC50 (VIM-1; fluorescence assay with CCF2-FA substrate, read-out: VIM-1 IC50): 12 nM; IC50 (IMP-1; [10]): 2.08 nM; IC50 (NDM-1; [10]): 6.2 nM; Serratia marcescens MITC95 ([1]; CL5741 (IMP-1), 95% inhibition of bacterial growth): 3.125 µM; Escherichia coli MITC95 ([2]; CLB30016 (NDM-1), 95% inhibition of bacterial growth): 1.563 µM; Klebsiella pneumoniae MITC95 ([3]; IHMA599644 (VIM-1), 95% inhibition of bacterial growth): 50 µM
3 | Nc1nc2c(-c3ccc(CCO)c(S(N)(=O)=O)c3-c3nn[nH]n3)cccc2s1 [Example 531, 3-(2-Aminobenzo[d]thiazol-4-yl)-6-(2-hydroxyethyl)-2-(2H-tetrazol-5-yl)benzenesulfonamide] | 32.1 | 2.07 | 12.5 | 6.25 | 12.5 | – | – | – | – | – | – | IC50 (VIM-1; [11]): 8.36 nM
4 | NS(=O)(=O)c1cccc(-c2ccc(CNC3CCNC3=O)cc2)c1-c1nnn[nH]1 (stereo not drawn) [Example 388, 4′-{[(2-oxopyrrolidin-3-yl)amino]methyl}-2-(1H-tetrazol-5-yl)biphenyl-3-sulfonamide] | – | – | – | – | – | 48.6 | 4.28 | 1.563 | 1.563 | 200 | – | IC50 (VIM-1; [12]): 273 nM
5 | NS(=O)(=O)c1c(C(F)(F)F)ccc(-c2cccc(C3CCNC3)c2)c1-c1nnn[nH]1 (stereo not drawn) [Example 722, 3′-pyrrolidin-3-yl-2-(1H-tetrazol-5-yl)-4-(trifluoromethyl)biphenyl-3-sulfonamide] | 21.7 | 20.8 | 25 | 12.5 | 6.25 | – | – | – | – | – | – | IC50 (VIM-1; [11]): 1.46 nM
6 | NS(=O)(=O)c1cccc(-c2cc3cnccc3s2)c1-c1nnn[nH]1 [Example 411, 2-(1H-tetrazol-5-yl)-3-thieno[3,2-c]pyridin-2-yl-benzenesulfonamide] | – | – | – | – | – | 102 | 4.84 | 3.125 | 0.7813 | 25 | 27.8 | –
7 | NS(=O)(=O)c1c(C[C@H]2CC[C@@H](N)CC2)ccc(-c2ccc(C3CNC3)cc2)c1-c1nnn[nH]1 [Example 596, 4-(((1s,4s)-4-aminocyclohexyl)methyl)-4′-(azetidin-3-yl)-2-(1H-tetrazol-5-yl)-[1,1′-biphenyl]-3-sulfonamide] | 10.6 | 4.38 | 1.563 | 0.7813 | 1.563 | – | – | – | – | – | – | IC50 (VIM-1; [4]): 7.46 nM
8 | C[N+]1(C)CC(c2ccc(-c3ccc(C(F)(F)F)c(S(N)(=O)=O)c3-c3nn[nH]n3)cc2)C1 [Example 435, 1,1-dimethyl-3-(3′-sulfamoyl-2′-(2H-tetrazol-5-yl)-4′-(trifluoromethyl)-[1,1′-biphenyl]-4-yl)azetidin-1-ium] | – | – | – | – | – | 11.1 | 12 | 0.25 | 1.281 | 3.125 | 2.37 | –
9 | NS(=O)(=O)c1cccc(-c2ccc(CNCCN3CCCC3)cc2)c1-c1nn[nH]n1 [Example 328, 4′-(((2-(pyrrolidin-1-yl)ethyl)amino)methyl)-2-(2H-tetrazol-5-yl)-[1,1′-biphenyl]-3-sulfonamide] | – | – | – | – | – | 325 | 20.4 | 6.25 | 1.563 | 125 | 473 | –
10 | NC1CCC(Cc2ccc(-c3ccnc4ccccc34)c(-c3nn[nH]n3)c2S(N)(=O)=O)CC1 (stereo not drawn) [Example 451, 6-(((1s,4s)-4-aminocyclohexyl)methyl)-3-(quinolin-4-yl)-2-(2H-tetrazol-5-yl)benzenesulfonamide] | – | – | – | – | – | 47.1 | 0.977 | 3.125 | 1.563 | 3.125 | 0.476 | –
11 | NS(=O)(=O)c1nccc(N2CCC(O)CC2)c1-c1nnn[nH]1 [Example 242, 4-(4-hydroxypiperidin-1-yl)-3-(1H-tetrazol-5-yl)pyridine-2-sulfonamide] | – | – | – | – | – | 1120 | 103 | 25 | 0.3906 | 6.25 | 270 | –
12 | NS(=O)(=O)c1cccc(-c2csc(-c3ccncc3)n2)c1-c1nnn[nH]1 [Example 409, 3-[2-(4-pyridyl)thiazol-4-yl]-2-(1H-tetrazol-5-yl)benzenesulfonamide] | – | – | – | – | – | 445 | 26.9 | 12.5 | 1.563 | >200 | 237 | –
13 | NS(=O)(=O)c1cccc(-c2ccc(CNCc3ccncn3)cc2)c1-c1nnn[nH]1 [Example 377, 4′-{[(pyrimidin-4-ylmethyl)amino]methyl}-2-(1H-tetrazol-5-yl)biphenyl-3-sulfonamide] | – | – | – | – | – | 73.7 | 5.27 | 3.125 | 1.563 | 200 | – | IC50 (VIM-1; [12]): 256 nM
14 | NS(=O)(=O)c1cccc(-c2cccc3ccoc23)c1-c1nn[nH]n1 [Example 522, 3-(Benzofuran-7-yl)-2-(2H-tetrazol-5-yl)benzenesulfonamide] | 263 | 3.4 | 18.75 | 2.344 | 50 | – | – | – | – | – | – | IC50 (VIM-1; [11]): 52.9 nM
15 | NS(=O)(=O)c1cccc(-c2cnc3ccccn23)c1-c1nnn[nH]1 [Example 404, 3-imidazo[1,2-a]pyridin-3-yl-2-(1H-tetrazol-5-yl)benzenesulfonamide] | – | – | – | – | – | 71.4 | 0.817 | 1.708 | 0.0625 | 2.563 | 5.41 | –
16 | Nc1nc2c(-c3ccc(CCCO)c(S(N)(=O)=O)c3-c3nn[nH]n3)cccc2s1 [Example 533, 3-(2-Aminobenzo[d]thiazol-4-yl)-6-(3-hydroxypropyl)-2-(2H-tetrazol-5-yl)benzenesulfonamide] | 16.6 | 0.878 | 12.5 | 3.125 | 12.5 | – | – | – | – | – | – | IC50 (VIM-1; [11]): 2.88 nM
17 | NS(=O)(=O)c1cccc(-c2ccc(CN[C@@H]3CC[C@H](O)C3)cc2)c1-c1nnn[nH]1 [Example 369, 4′-({[(1R,3S)-3-hydroxycyclopentyl]amino}methyl)-2-(1H-tetrazol-5-yl)biphenyl-3-sulfonamide] | – | – | – | – | – | 728 | 25.2 | 12.5 | 3.125 | 200 | 667 | –
18 | CC(CC(=O)O)NCc1ccc(-c2cccc(S(N)(=O)=O)c2-c2nnn[nH]2)cc1 (stereo not drawn) [Example 344, 3-({[3′-sulfamoyl-2′-(1H-tetrazol-5-yl)biphenyl-4-yl]methyl}amino)butanoic acid] | – | – | – | – | – | 242 | 32.8 | 4.688 | 2.344 | 100 | 585 | –
19 | NC[C@H]1CC[C@H](Cc2ccc(-c3ccc(C4CCNC4)cc3)c(-c3nnn[nH]3)c2S(N)(=O)=O)CC1 (stereo partly drawn) [Example 586, 4-(((1r,4r)-4-(aminomethyl)cyclohexyl)methyl)-4′-(pyrrolidin-3-yl)-2-(1H-tetrazol-5-yl)-[1,1′-biphenyl]-3-sulfonamide] | 7.14 | 2.34 | 1.563 | 0.7813 | 1.563 | – | – | – | – | – | – | IC50 (VIM-1; [11]): 1.16 nM
